target: T1, prostanoid EP3 receptors (Homo sapiens, UniProt P43115); test: binding on prostanoid EP3 receptors (method of Abramovitz et al.); conditions: read-out: Activity (EP3 receptor binding, IC50 class)
T1 sequence (P43115 1-390): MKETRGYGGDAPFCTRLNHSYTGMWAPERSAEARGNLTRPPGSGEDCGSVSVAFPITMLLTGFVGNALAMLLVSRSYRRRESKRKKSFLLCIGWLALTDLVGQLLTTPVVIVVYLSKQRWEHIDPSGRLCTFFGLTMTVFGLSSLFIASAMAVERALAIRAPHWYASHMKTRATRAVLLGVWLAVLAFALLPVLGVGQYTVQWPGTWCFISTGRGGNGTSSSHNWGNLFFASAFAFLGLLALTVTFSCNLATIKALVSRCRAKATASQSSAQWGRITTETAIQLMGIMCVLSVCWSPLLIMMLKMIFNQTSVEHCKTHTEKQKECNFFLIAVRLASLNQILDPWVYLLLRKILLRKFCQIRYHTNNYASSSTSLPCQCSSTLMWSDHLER
Protocol: The compounds of the invention were assayed for their binding on prostanoid EP3 receptors according to the method of Abramovitz et al. [Bioch. Biophys.

SMILES	IC50
CC12CCCC(C=CC(=O)NS(=O)(=O)c3cc(F)cc(F)c3)=C1N(Cc1ccc(F)c(F)c1)C(=O)C2 (stereo not drawn) [Compound P305]	< 1000 nM
COc1cccc(CN2C(=O)CC3(C)CCCC(C=CC(=O)NS(=O)(=O)c4cc(F)c(F)cc4F)=C23)c1 (stereo not drawn) [Compound P306]	< 1000 nM
COc1cccc(CN2C(=O)CC3(C)CCCC(C=CC(=O)NS(=O)(=O)c4cc(F)cc(F)c4)=C23)c1 (stereo not drawn) [Compound P307]	< 1000 nM
COc1cccc(CN2C(=O)CC3(C)CCCC(C=CC(=O)NS(=O)(=O)c4ccc(F)c(F)c4)=C23)c1 (stereo not drawn) [Compound P308]	< 1000 nM
Cn1cc(C=CC(=O)NS(=O)(=O)c2cc(F)c(F)cc2F)c2c(Oc3ccc(Cl)cc3)cccc21 [Compound P309]	< 1000 nM
Cn1cc(C=CC(=O)NS(=O)(=O)c2ccc(F)c(F)c2)c2c(Oc3ccc(Cl)cc3)cccc21 [Compound P310]	< 1000 nM
Cn1cc(/C=C/C(=O)NS(=O)(=O)c2cc(Cl)c(Cl)s2)c2c(Oc3ccc(Cl)cc3)cccc21 [Compound P311]	< 1000 nM
Cc1cn(Cc2ccc(F)cc2)c2c(C=CC(=O)NS(=O)(=O)c3cc(F)c(F)cc3F)cc(F)cc12 [Compound P312]	< 1000 nM
Cc1cn(Cc2ccc(F)cc2)c2c(C=CC(=O)NS(=O)(=O)c3ccc(F)c(F)c3)cc(F)cc12 [Compound P314]	< 1000 nM
Cc1cn(Cc2ccc(F)c(F)c2)c2c(C=CC(=O)NS(=O)(=O)c3ccc(F)c(F)c3)cc(F)cc12 [Compound P315]	< 1000 nM
Cc1cn(Cc2ccc(F)cc2)c2c(C=CC(=O)NS(=O)(=O)c3cc(F)cc(F)c3)cc(F)cc12 [Compound P316]	< 1000 nM
Cn1cc(C=CC(=O)NS(=O)(=O)c2cc(F)c(F)cc2F)c2c(Oc3ccc(F)c(F)c3)cccc21 [Compound P318]	< 1000 nM
Cn1cc(C=CC(=O)NS(=O)(=O)c2ccc(F)c(F)c2)c2c(Oc3ccc(F)c(F)c3)cccc21 [Compound P319]	< 1000 nM
Cn1cc(C=CC(=O)NS(=O)(=O)c2cc(Cl)c(Cl)s2)c2c(Oc3ccc(F)c(F)c3)cccc21 [Compound P320]	< 1000 nM
Cn1cc(C=CC(=O)NS(=O)(=O)c2cc(F)c(F)cc2F)c2c(Oc3ccc(F)cc3F)cccc21 [Compound P324]	< 1000 nM
Cn1cc(/C=C/C(=O)NS(=O)(=O)c2cc(Cl)c(Cl)s2)c2c(Oc3ccc(F)cc3F)cccc21 [Compound P326]	< 1000 nM
Cn1cc(C=CC(=O)NS(=O)(=O)c2cc(F)c(F)cc2F)c2c(Oc3ccc(F)c(Cl)c3)cccc21 [Compound P328]	< 1000 nM
Cn1cc(C=CC(=O)NS(=O)(=O)c2cc(Cl)c(Cl)s2)c2c(Oc3ccc(F)c(Cl)c3)cccc21 [Compound P330]	< 1000 nM
Cn1cc(C=CC(=O)NS(=O)(=O)c2cc(F)c(F)cc2F)c2c(Oc3ccc(Cl)c(F)c3)cccc21 [Compound P331]	< 1000 nM
Cn1cc(C=CC(=O)NS(=O)(=O)c2ccc(F)c(F)c2)c2c(Oc3ccc(Cl)c(F)c3)cccc21 [Compound P332]	< 1000 nM
Cn1cc(/C=C/C(=O)NS(=O)(=O)c2cc(Cl)c(Cl)s2)c2c(Oc3ccc(Cl)c(F)c3)cccc21 [Compound P333]	< 1000 nM

SMILES	IC50
Cn1cc(/C=C/C(=O)NS(=O)(=O)c2ccc(F)c(F)c2)c2c(Oc3ccc4ccccc4c3)cccc21 [Compound P334]	< 1000 nM
Cc1cn(Cc2ccc(Cl)cc2Cl)c2c(C=CC(=O)NS(=O)(=O)c3ccc(F)c(F)c3)cc(F)cc12 [Compound P335]	< 1000 nM
Cn1cc(C=CC(=O)NS(=O)(=O)c2cc(F)c(F)cc2F)c2c(Oc3ccc(Cl)cc3F)cccc21 [Compound P337]	< 1000 nM
Cn1cc(C=CC(=O)NS(=O)(=O)c2ccc(F)c(F)c2)c2c(Oc3ccc(Cl)cc3F)cccc21 [Compound P338]	< 1000 nM
Cn1cc(/C=C/C(=O)NS(=O)(=O)c2cc(Cl)c(Cl)s2)c2c(Oc3ccc(Cl)cc3F)cccc21 [Compound P339]	< 1000 nM
Cn1cc(C=CC(=O)NS(=O)(=O)c2cc(F)c(F)cc2F)c2c(Oc3ccc(F)cc3Cl)cccc21 [Compound P340]	< 1000 nM
Cn1cc(C=CC(=O)NS(=O)(=O)c2ccc(F)c(F)c2)c2c(Oc3ccc(F)cc3Cl)cccc21 [Compound P341]	< 1000 nM
Cn1cc(C=CC(=O)NS(=O)(=O)c2cc(Cl)c(Cl)s2)c2c(Oc3ccc(F)cc3Cl)cccc21 [Compound P342]	< 1000 nM
Cn1cc(/C=C/C(=O)NS(=O)(=O)c2cc(F)c(F)cc2F)c2c(Oc3ccc4ccccc4c3)cccc21 [Compound P343]	< 1000 nM
CCOC(=O)C12CCCC(C=CC(=O)NS(=O)(=O)c3cc(F)c(F)cc3F)=C1N(Cc1ccc(Cl)cc1Cl)C(=O)C2 (stereo not drawn) [Compound P344]	< 1000 nM
CCOC(=O)C12CCCC(C=CC(=O)NS(=O)(=O)c3cc(Cl)c(Cl)s3)=C1N(Cc1ccc(Cl)cc1Cl)C(=O)C2 (stereo not drawn) [Compound P345]	< 1000 nM
CCOC(=O)C12CCCC(C=CC(=O)NS(=O)(=O)c3ccc(F)c(F)c3)=C1N(Cc1ccc(Cl)cc1Cl)C(=O)C2 (stereo not drawn) [Compound P346]	< 1000 nM
Cc1cn(Cc2ccc(Cl)cc2Cl)c2c(C=CC(=O)NS(=O)(=O)c3cc(Cl)c(Cl)s3)cncc12 [Compound P348]	< 1000 nM
Cn1cc(C=CC(=O)NS(=O)(=O)c2ccc(F)cc2)c2c(Oc3ccc4ccccc4c3)cccc21 [Compound P351]	< 1000 nM
Cn1cc(C=CC(=O)NS(=O)(=O)c2ccccc2Cl)c2c(Oc3ccc4ccccc4c3)cccc21 [Compound P352]	< 1000 nM
Cn1cc(C=CC(=O)NS(=O)(=O)c2cccc(Cl)c2)c2c(Oc3ccc4ccccc4c3)cccc21 [Compound P353]	< 1000 nM
Cn1cc(C=CC(=O)NS(=O)(=O)c2ccc(Cl)c(Cl)c2)c2c(Oc3ccc4ccccc4c3)cccc21 [Compound P355]	< 1000 nM
Cn1cc(C=CC(=O)NS(=O)(=O)c2ccc(Cl)cc2Cl)c2c(Oc3ccc4ccccc4c3)cccc21 [Compound P356]	< 1000 nM
Cn1cc(C=CC(=O)NS(=O)(=O)c2cc(Cl)cc(Cl)c2)c2c(Oc3ccc4ccccc4c3)cccc21 [Compound P357]	< 1000 nM
Cn1cc(C=CC(=O)NS(=O)(=O)c2ccc(F)cc2F)c2c(Oc3ccc4ccccc4c3)cccc21 [Compound P358]	< 1000 nM
Cn1cc(C=CC(=O)NS(=O)(=O)c2cc(F)ccc2F)c2c(Oc3ccc4ccccc4c3)cccc21 [Compound P359]	< 1000 nM

SMILES	IC50
Cn1cc(C=CC(=O)NS(=O)(=O)c2c(F)cccc2F)c2c(Oc3ccc4ccccc4c3)cccc21 [Compound P360]	< 1000 nM
Cn1cc(C=CC(=O)NS(=O)(=O)c2cc(F)cc(F)c2)c2c(Oc3ccc4ccccc4c3)cccc21 [Compound P361]	< 1000 nM
Cn1cc(CCC(=O)NS(=O)(=O)c2ccc(F)c(F)c2)c2c(Oc3ccc4ccccc4c3)cccc21 [Compound P362]	< 1000 nM
Cn1cc(C=CC(=O)NS(=O)(=O)c2cccc(F)c2)c2c(Oc3ccc4ccccc4c3)cccc21 [Compound P363]	< 1000 nM
Cn1cc(C=CC(=O)NS(=O)(=O)c2ccccc2F)c2c(Oc3ccc4ccccc4c3)cccc21 [Compound P364]	< 1000 nM
Cn1cc(C=CC(=O)NS(=O)(=O)c2ccc(Cl)cc2)c2c(Oc3ccc4ccccc4c3)cccc21 [Compound P365]	< 1000 nM
COc1ccc(S(=O)(=O)NC(=O)C=Cc2cn(C)c3cccc(Oc4ccc5ccccc5c4)c23)cc1 [Compound P366]	< 1000 nM
Cc1noc(C)c1Cn1cc(C)c2cc(F)cc(C=CC(=O)NS(=O)(=O)c3cc(F)c(F)cc3F)c21 [Compound P370]	< 1000 nM
Cn1cc(C=CC(=O)NS(=O)(=O)c2c(F)c(F)c(F)c(F)c2F)c2c(Oc3ccc4ccccc4c3)cccc21 [Compound P373]	< 1000 nM
COc1cc(Cn2cc(C)c3cc(F)cc(C=CC(=O)NS(=O)(=O)c4ccc(F)c(F)c4)c32)cc(OC)c1 [Compound P374]	< 1000 nM
COc1cc(Cn2cc(C)c3cc(F)cc(C=CC(=O)NS(=O)(=O)c4cc(F)c(F)cc4F)c32)cc(OC)c1 [Compound P375]	< 1000 nM
Cn1cc(C=CC(=O)NS(=O)(=O)c2ccc(F)c(F)c2)c2c(Oc3ccc4ncccc4c3)cccc21 [Compound P376]	< 1000 nM
Cn1cc(C=CC(=O)NS(=O)(=O)c2cc(F)c(F)cc2F)c2c(Oc3ccc4ncccc4c3)cccc21 [Compound P377]	< 1000 nM
Cc1cn(CCC(=O)NS(=O)(=O)c2cc(F)c(F)cc2F)c2c(Oc3ccc4ccccc4c3)cc(F)cc12 [Compound P378, 2,4,5-Trifluoro-N-{3-[5-fluoro-3-methyl-7-(naphthalen-2-yloxy)-indol-1-yl]-propionyl}-benzenesulfonamide]	< 1000 nM
Cc1cn(CCC(=O)NS(=O)(=O)c2ccc(F)c(F)c2)c2c(Oc3ccc4ccccc4c3)cc(F)cc12 [Compound P379]	< 1000 nM
Cc1cn(CCC(=O)NS(=O)(=O)c2cccc(Cl)c2)c2c(Oc3ccc4ccccc4c3)cc(F)cc12 [Compound P381]	< 1000 nM
Cc1cn(CCC(=O)NS(=O)(=O)c2cc(F)c(F)cc2F)c2c(Oc3ccc(Cl)cc3Cl)cc(F)cc12 [Compound P382]	< 1000 nM
Cc1cn(CCC(=O)NS(=O)(=O)c2ccc(F)c(F)c2)c2c(Oc3ccc(Cl)cc3Cl)cc(F)cc12 [Compound P383]	< 1000 nM
Cc1cn(CCC(=O)NS(=O)(=O)c2cc(Cl)c(Cl)s2)c2c(Oc3ccc(Cl)cc3Cl)cc(F)cc12 [Compound P384]	< 1000 nM
Cc1cn(CCC(=O)NS(=O)(=O)c2cccc(Cl)c2)c2c(Oc3ccc(Cl)cc3Cl)cc(F)cc12 [Compound P385]	< 1000 nM
Cc1cn(CCC(=O)NS(=O)(=O)c2cc(F)c(F)cc2F)c2c(Oc3ccc(Cl)c(Cl)c3)cc(F)cc12 [Compound P386]	< 1000 nM
